US20190240187A1, “ORAL PREPARATIONS WITH OMEPRAZOLE OR PANTOPRAZOLE” (SYMRISE AG, priority 2015, published 2019)

Assay: Bitter masking test: aqueous omeprazole solutions tasted by a panel in duo comparison tests
Assay type: in vivo
Details: 500 ppm omeprazole; for Masking effect on the bitterness of omeprazole (in words): 100 ppm additive
From the text: To test the bitter masking effect, aqueous solutions, each containing 500 ppm omeprazole
(V1) alone or together (1) with 100 ppm eriodyctiol (ED) or (2) with 100 ppm homoeriodyctiol sodium salt (HE) or (3) with 100 ppm eriodyctiol+100 ppm homoeriodyctiol sodium salt or (V4) with 100 ppm 4′-fluoro-6-methoxyflavanone as a reference substance that has no masking effect, were tasted. Solutions 2-5 were each tasted by an experienced panel of 20-30 testers in a randomized order against solution 1 in duo comparison tests and the bitterness of each sample was estimated on a scale of 0 to 100.

SMILES	Bitterness (mean panel estimate (20-30 testers) on a scale of 0 to 100, aqueous solution, additives 100 ppm each)	Masking effect on the bitterness of omeprazole (in words)
COc1ccc2[nH]c([S+]([O-])Cc3ncc(C)c(OC)c3C)nc2c1 (racemic) [Example V1, (RS)-5-methoxy-2-[(4-methoxy-3,5-dimethylpyridin-2-yl)methanesulfinyl]-1H-benzoinnidazole, reference compound]	80	–
O=C1CC(c2ccc(O)c(O)c2)Oc2cc(O)cc(O)c21 (stereo not drawn) [ED, 2-(3,4-dihydroxyphenyl)-5,7-dihydroxy-4-chronnanone]	–	act on their own as masking agents
COc1cc(C2CC(=O)c3c(O)cc(O)cc3O2)ccc1O (stereo not drawn) [HE, 5-7-dihydroxy-2-(4-hydroxy-3-methoxyphenyl)-4-chronnanone]	–	act on their own as masking agents
